Experimental data as given in PMC6361133, “A chemical-genetics approach to study the role of atypical Protein Kinase C in Drosophila” (Development (Cambridge, England), 2019).

Target: atypical Protein Kinase C (aPKC), analogue-sensitive aPKC^as4 (Drosophila melanogaster, UniProt A1Z9X0, I342A/T405A)
Assay: in vitro […]-ATP peptide kinase assay with immunoprecipitated FLAG-aPKC ([…] ATP, […] MgCl2)
Format: biochemical

Sequence of atypical Protein Kinase C (aPKC), analogue-sensitive aPKC^as4 (A1Z9X0 whole entry I342A/T405A): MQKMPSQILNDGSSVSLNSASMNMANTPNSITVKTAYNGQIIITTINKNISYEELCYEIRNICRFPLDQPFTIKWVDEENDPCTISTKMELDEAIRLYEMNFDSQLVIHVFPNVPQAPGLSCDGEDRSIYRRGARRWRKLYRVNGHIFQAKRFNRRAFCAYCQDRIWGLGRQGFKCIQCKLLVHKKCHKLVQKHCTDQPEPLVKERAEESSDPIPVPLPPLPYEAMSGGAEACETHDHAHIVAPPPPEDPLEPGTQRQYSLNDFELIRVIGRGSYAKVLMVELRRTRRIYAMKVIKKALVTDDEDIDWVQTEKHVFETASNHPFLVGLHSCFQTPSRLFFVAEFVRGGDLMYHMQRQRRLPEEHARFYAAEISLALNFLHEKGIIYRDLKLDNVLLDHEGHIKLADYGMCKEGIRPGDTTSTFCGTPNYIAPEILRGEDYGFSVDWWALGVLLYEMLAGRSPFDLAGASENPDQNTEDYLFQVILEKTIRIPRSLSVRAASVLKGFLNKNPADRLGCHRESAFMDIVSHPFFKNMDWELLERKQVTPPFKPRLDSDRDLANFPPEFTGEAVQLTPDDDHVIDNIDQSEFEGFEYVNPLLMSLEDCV

Compound: CC(C)(C)n1nc(-c2cccc3ccccc23)c2c(N)ncnc21 [1NA-PP1]
- IC50: ~100 nM
